Structures are written as SMILES.

As for `CC(C)n1nc(-c2c(-c3ccccc3)nc(N)nc2N2CCCCC2)ccc1=O` [Example 126, 6-[2-Amino-4-phenyl-6-(1-piperidinyl)-5-pyrimidinyl]-2-isopropyl-3(2H)-pyridazinone], the melting point (in general, the temperature of the solid-liquid transition) was 221 to 223 °C.

`C=CCOc1nc(N)nc(-c2ccccc2)c1-c1ccc(=O)n(C(C)C)n1` [Example 84, 6-[4-(Allyloxy)-2-amino-6-phenyl-5-pyrimidinyl]-2-isopropyl-3(2H)-pyridazinone] showed a melting point of 130.5 to 132.5 °C.

For the molecule `CC(C)n1nc(-c2c(OC3CCC3)nc(N)nc2-c2ccccc2)ccc1=O` [Example 83, 6-[2-Amino-4-(cyclobutyloxy)-6-phenyl-5-pyrimidinyl]-2-isopropyl-3(2H)-pyridazinone], the melting point lay in the range of 161 to 162.5 °C.

The molecule `CC(C)n1nc(-c2cnc(N)nc2-c2cccc(F)c2)ccc1=O` [Example 21, 6-[2-Amino-4-(3-fluorophenyl)-5-pyrimidinyl]-2-isopropyl-3(2H)-pyridazinone] yielded a melting point of 220 to 221.5 °C.

In turn, `CC(C)n1nc(-c2c(-c3ccccc3)nc(N)nc2N(C)Cc2ccccc2)ccc1=O` [Example 120, 6-{2-amino-4-[benzyl(methyl)amino]-6-phenyl-5-pyrimidinyl}-2-isopropyl-3(2H)-pyridazinone] came in with a melting point of 167 to 168 °C.

`CC(C)n1nc(-c2cnc(N)nc2-c2ccccc2OCCCF)ccc1=O` [Example 215, 6-{2-Amino-4-[2-(3-fluoropropoxy)phenyl]-5-pyrimidinyl}-2-isopropyl-3(2H)-pyridazinone] yielded a melting point of 200 °C.

Consider `CC(C)n1nc(-c2cnc(N)nc2-c2cccs2)ccc1=O` [Example 55, 6-(2-Amino-4-(2-thienyl)-5-pyrimidinyl]-2-isopropyl-3(2H)-pyridazinone], for which the melting point was found to be 213 °C.

The molecule `C=CCNc1nc(N)nc(-c2ccccc2)c1-c1ccc(=O)n(C(C)C)n1` [Example 111, 6-[4-(Allylamino)-2-amino-6-phenyl-5-pyrimidinyl]-2-isopropyl-3(2H)-pyridazinone] registered a melting point of 191.5 to 192.5 °C.

Molecule `COc1nc(N)nc(-c2ccc(F)cc2)c1-c1ccc(=O)n(C(C)C)n1` [Example 149, 6-[2-amino-4-(4-fluorophenyl)-6-methoxy-5-pyrimidinyl]-2-isopropyl-3(2H)-pyridazinone] gave a melting point of 207 to 209 °C.

Molecule `COc1ccc(-c2nc(N(C)C)ncc2-c2ccc(=O)n(C)n2)cc1` [Example 247, 6-[2-(Dimethylamino)-4-(4-methoxyphenyl)-5-pyrimidinyl]-2-methyl-3(2H)-pyridazinone] registered a melting point of 165 °C.

The molecule `Cc1cccc(C)c1-c1nc(N)ncc1-c1ccc(=O)n(C(C)C)n1` [Example 240, 6-[2-Amino-4-(2,6-dimethylphenyl)-5-pyrimidinyl]-2-isopropyl-3(2H)-pyridazinone] registered a melting point of 212 °C.

Take `CC(C)n1nc(-c2cnc(NC(=O)c3ccc(Cl)cc3)nc2-c2ccccc2)ccc1=O` [Example 171, 4-Chloro-N-[5-(1-isopropyl-6-oxo-1,6-dihydro-3-pyridazinyl)-4-phenyl-2-pyrimidinyl]benzamide]: the melting point amounted to 100 °C.

The molecule `CCCCOc1ccc(-c2nc(N)ncc2-c2ccc(=O)n(C(C)C)n2)cc1` [Example 197, 6-[2-Amino-4-(4-butoxyphenyl)-5-pyrimidinyl]-2-isopropyl-3(2H)-pyridazinone] displayed a melting point of 143 °C.

For the molecule `CC(C)n1nc(-c2c(N)nc(N)nc2-c2ccccc2)ccc1=O` [Example 105, 6-(2,4-diamino-6-phenyl-5-pyrimidinyl)-2-isopropyl-3(2H)-pyridazinone], the melting point fell in the range of 258 to 260 °C.

Turning to `CC(C)n1nc(-c2c(-c3ccccc3)nc(N)nc2N2CCCC2)ccc1=O` [Example 125, 6-[2-Amino-4-phenyl-6-(1-pyrrolidinyl)-5-pyrimidinyl]-2-isopropyl-3(2H)-pyridazinone], the melting point was > 300 °C.

Take `COC(=O)Nc1ncc(-c2ccc(=O)n(C(C)C)n2)c(-c2ccccc2)n1` [Example 168, Methyl 5-(1-isopropyl-6-oxo-1,6-dihydro-3-pyridazinyl)-4-phenyl-2-pyrimidinylcarbamate]: the melting point is 197 to 200 °C.

Take `C#CCOc1nc(N)nc(-c2ccccc2)c1-c1ccc(=O)n(C(C)C)n1` [Example 85, 6-[2-amino-4-phenyl-6-(2-propynyloxy)-5-pyrimidinyl]-2-isopropyl-3(2H)-pyridazinone]: the melting point lay within 145 to 146.6 °C.

In turn, `Nc1ncc(-c2ccc(=O)n(Cc3ccccc3)n2)c(-c2ccccc2)n1` [Example 6, 6-(2-Amino-4-phenyl-5-pyrimidinyl)-2-benzyl-3(2H)-pyridazinone] displayed a melting point of 229 to 230 °C.

Take `Cc1nc(Nc2nc(N)nc(-c3ccccc3)c2-c2ccc(=O)n(C(C)C)n2)sc1C` [Example 134, 6-{2-Amino-4-[(4,5-dimethyl-1,3-thiazol-2-yl)amino]-6-phenyl-5-pyrimidinyl}-2-isopropyl-3(2H)-pyridazinone]: the melting point was in the range of 256 to 257.5 °C.

On to `CC(C)n1nc(-c2c(OCCN(C)C)nc(N)nc2-c2ccccc2)ccc1=O` [Example 88, 6-{2-Amino-4-[2-(dimethylamino)ethoxy]-6-phenyl-5-pyrimidinyl}-2-isopropyl-3(2H)-pyridazinone], for which the melting point was in the range of 130 to 131.5 °C.

Molecule `CC(C)n1nc(-c2c(NCCN(C)C)nc(N)nc2-c2ccccc2)ccc1=O` [Example 117, 6-(2-Amino-4-{[2-(dimethylamino)ethyl]amino}-6-phenyl-5-pyrimidinyl)-2-isopropyl-3(2H)-pyridazinone] gave a melting point of 164 to 165.5 °C.

`CC(C)n1nc(-c2c(OCCN3C(=O)c4ccccc4C3=O)nc(N)nc2-c2ccccc2)ccc1=O` [Example 90, 2-(2-{[2-Amino-5-(1-isopropyl-6-oxo-1,6-dihydro-3-pyridazinyl)-6-phenyl-4-pyrimidinyl]oxy}-ethyl)-1H-isoindole-1,3(2H)-dione] gave a melting point of 231.5 to 232.5 °C.

`Cc1nc(N)nc(-c2ccccc2)c1-c1ccc(=O)n(C(C)C)n1` [Example 253, 6-(2-amino-4-methyl-6-phenyl-5-pyrimidinyl)-2-isopropyl-3(2H)-pyridazinone]: the melting point was in the range of 213 to 215 °C.

Molecule `CSc1nc(N)nc(-c2ccc([S+](C)[O-])cc2)c1-c1ccc(=O)n(C(C)C)n1` (centres unmarked) [Example 152, 6-[2-amino-4-[4-(methylsulfinyl)phenyl]-6-(methylthio)-5-pyrimidinyl]-2-isopropyl-3(2H)-pyridazinone] came in with a melting point of 221 to 223 °C.

Turning to `COc1cccc(-c2nc(N)ncc2-c2ccc(=O)n(C)n2)c1` [Example 73, 6-[2-Amino-4-(3-methoxyphenyl)-5-pyrimidinyl]-2-methyl-3(2H)-pyridazinone], the melting point amounted to 195 °C.

In the case of `CSc1nc(N)nc(-c2ccc(S(C)(=O)=O)cc2)c1-c1ccc(=O)n(C(C)C)n1` [Example 151, 6-[2-amino-4-[4-(methylsulfonyl)phenyl]-6-(methylthio)-5-pyrimidinyl]-2-isopropyl-3(2H)-pyridazinone], the melting point was 241 to 243 °C.

In the case of `CC(C)n1nc(-c2c(NCc3ccccn3)nc(N)nc2-c2ccccc2)ccc1=O` [Example 121, 6-{2-Amino-4-phenyl-6-[(2-pyridinylmethyl)amino]-5-pyrimidinyl}-2-isopropyl-3(2H)-pyridazinone], the melting point fell in the range of 196 to 198 °C.

In the case of `CC(C)n1nc(-c2cnc(N)nc2-c2ccoc2)ccc1=O` [Example 241, 6-[2-Amino-4-(3-furyl)-5-pyrimidinyl]-2-isopropyl-3(2H)-pyridazinone], the melting point was 216 °C.

Regarding `COc1ccc(-c2nc(N)ncc2-c2ccc(=O)[nH]n2)cc1F` [Example 29, 6-[2-Amino-4-(3-fluoro-4-methoxyphenyl)-5-pyrimidinyl]-3(2H)-pyridazinone], the melting point came to 250 °C.

In turn, `Cc1ccccc1-c1nc(N)ncc1-c1ccc(=O)n(C)n1` [Example 70, 6-[2-Amino-4-(2-methylphenyl)-5-pyrimidinyl]-2-methyl-3(2H)-pyridazinone] gave a melting point of 229 °C.

`CCCOc1ccccc1-c1nc(N)ncc1-c1ccc(=O)n(C(C)C)n1` [Example 192, 6-[2-Amino-4-(2-propoxyphenyl)-5-pyrimidinyl]-2-isopropyl-3(2H)-pyridazinone] yielded a melting point of 145 °C.

For `CC(C)n1nc(-c2c(-c3ccccc3)nc(N)nc2[S+](C)[O-])ccc1=O` (centres unmarked) [Example 79, 6-[2-amino-4-(methylsulfinyl)-6-phenyl-5-pyrimidinyl]-2-isopropyl-3(2H)-pyridazinone], the melting point fell in the range of 225 to 227 °C.

`Cc1ccc(-c2nc(N)ncc2-c2ccc(=O)n(C(C)C)n2)cc1` [Example 48, 6-[2-Amino-4-(4-methylphenyl)-5-pyrimidinyl]-2-isopropyl-3(2H)-pyridazinone] showed a melting point of 224 °C.

In the case of `Cc1cccc(-c2nc(N)ncc2-c2ccc(=O)n(C)n2)c1` [Example 71, 6-[2-Amino-4-(3-methylphenyl)-5-pyrimidinyl]-2-methyl-3(2H)-pyridazinone], the melting point is 214 °C.

`CC(C)n1nc(-c2cnc(N)nc2-c2ccccc2Cl)ccc1=O` [Example 22, 6-[2-Amino-4-(2-chlorophenyl)-5-pyrimidinyl]-2-isopropyl-3(2H)-pyridazinone] had a melting point of 227 to 228.5 °C.

Consider `CC(C)n1nc(-c2c(NC(=N)N)nc(N)nc2-c2ccccc2)ccc1=O` [Example 137, N-[2-amino-5-(1-isopropyl-6-oxo-1,6-dihydro-3-pyridazinyl)-6-phenyl-4-pyrimidinyl]guanidine], for which the melting point was in the range of 272 to 274.5 °C.

The molecule `Cn1nc(-c2cnc(N)nc2-c2ccccc2)ccc1=O` [Example 3, 6-(2-Amino-4-phenyl-5-pyrimidinyl)-2-methyl-3(2H)-pyridazinone] registered a melting point of 254 to 255 °C.

As for `COc1ccccc1-c1nc(N)ncc1-c1ccc(=O)[nH]n1` [Example 40, 6-[2-Amino-4-(2-methoxyphenyl)-5-pyrimidinyl]-3(2H)-pyridazinone], the melting point was found to be 273 °C.

These data come from patent publication US20050043315A1, “Aminopyrimidine compounds, processes for their preparation and pharmaceutical compositions containing them” (priority 2002, published 2005).
